Results taken from ChEMBL document CHEMBL5584313, “Design and Synthesis of 7-Oxabicyclo[2.2.1]heptane-2,3-dicarboxylic Acid Derivatives as PP5 Inhibitors To Reverse Temozolomide Resistance in Glioblastoma Multiforme” (J Med Chem, 2024).
Calls of active or inactive are those of the source. No cut-off for these calls is given here.

Key:
[1] = Cmax in Sprague-Dawley rat at 5 mg/kg, iv measured upto 24 hrs by LC-MS/MS method; type: ADME, organism-based; details: in vivo
[2] = Toxicity in BALB/c nude mouse xenografted with U-87 MG cells assessed as heart damage at 1.5 to 3 mg/kg, po administered every other day for 18 days in presence of 40 mg/kg TMZ by H and E staining based assay; type: organism-based; details: in vivo, 432 h, dose 1.5-3 mg/kg, time 18 day
[3] = Cmax in Sprague-Dawley rat at 25 mg/kg, po measured upto 24 hrs by LC-MS/MS method; type: ADME, organism-based; details: in vivo
[4] = test system: U-87 MG; assay: Antitumor activity against human U-87 MG cells xenografted in BALB/c nude mouse assessed as tumor tissue necrosis at 1.5 to 3 mg/kg, po administered every other day for 18 days in presence of 40 mg/kg TMZ; type: functional, organism-based; details: U-87MG ATCC, dose 1.5-3 mg/kg, time 18.0 day
[5] = test system: U-87 MG; assay: Cytotoxicity against human U-87 MG cells incubated for 48 hrs by CCK8 assay; type: functional, cell-based, U-87MG ATCC
[6] = Half-life in Sprague-Dawley rat at 5 mg/kg, iv measured upto 24 hrs by LC-MS/MS method; type: ADME, organism-based; details: in vivo
[7] = Apparent volume of distribution in Sprague-Dawley rat at 5 mg/kg, iv measured upto 24 hrs by LC-MS/MS method; type: ADME, organism-based; details: in vivo, read-out: Vz
[8] = Stability in mouse plasma assessed as half life measured upto 300 mins by LC-MS/MS analysis; type: ADME, cell-free
[9] = test system: U-87MG ATCC; assay: Downregulation of cyclin D1 expression in human U-87 MG cells at 25 uM incubated for 24 hrs by Western blotting analysis; type: functional, cell-based
[10] = Apparent clearance in Sprague-Dawley rat at 25 mg/kg, po measured upto 24 hrs by LC-MS/MS method; type: ADME, organism-based; details: in vivo, read-out: CL(app) (converted)
[11] = Apparent volume of distribution in Sprague-Dawley rat at 25 mg/kg, po measured upto 24 hrs by LC-MS/MS method; type: ADME, organism-based; details: in vivo
[12] = AUC(0 to infinity) in Sprague-Dawley rat at 5 mg/kg, iv measured upto 24 hrs by LC-MS/MS method; type: ADME, organism-based; details: in vivo
[13] = Cytotoxicity against HUVECs incubated for 48 hrs by CCK8 assay; type: toxicity, cell-based; details: human, HUVEC cells
[14] = Cytotoxicity against human BEAS-2B incubated for 48 hrs by CCK8 assay; type: toxicity, cell-based; details: BEAS-2B cells
[15] = organism: Homo sapiens; assay: Selectivity ratio of IC50 for PP2A (unknown origin ) to IC50 for PP5 (unknown origin)
[16] = test system: U-87 MG; assay: Induction of apoptosis in human U-87 MG cells assessed as S phase cells at 5 uM incubated for 24 hrs by propidium iodide staining based flow cytometry analysis (reference value: 29.4%); type: functional, U-87MG ATCC
[17] = test system: U-87 MG; assay: Induction of apoptosis in human U-87 MG cells assessed as G2/M phase cells at 5 uM incubated for 24 hrs by propidium iodide staining based flow cytometry analysis (reference value: 11.9%); type: functional, U-87MG ATCC
[18] = Inhibition of PP2A in human U-87 MG cell lysate using RRA(pT)VA as substrate; type: subcellular

In the case of `O=C(O)[C@@H]1[C@H](C(=O)n2ccc3ccccc32)[C@H]2CC[C@@H]1O2`, the Cmax [1] is reported as 8620 ng/mL, the Activity [2] is reported as “Non-Toxic” and the Cmax [3] is reported as 11300 ng/mL. For the same compound, the Activity [4] was “Active”, the IC50 [5] was 70.1 µM and the half-life [6] was 2.41 h. For the same compound, the Vd [7] was 1.32 L/kg, the half-life [8] was 2.09 h and the Activity [9] was “Active”. It also gave a CL/F [10] of 7.69 mL/min/kg, a Vz [11] of 2.62804 L/kg and an AUC(0-inf) [12] of 13300 ng·h/mL. The IC50 at 48 h [13] was greater than 200 µM, the IC50 at 48 h [14] was 57.8 µM and the Ratio IC50 [15] was 38. For the same compound, the Activity [16] was 19.2%, the Activity [17] was 10.9% and the IC50 [18] was 33.8 µM.
